# ChEMBL document CHEMBL5390215, “SARS-CoV-2 papain-like protease (PLpro) inhibitory and antiviral activity of small molecule derivatives for drug leads” (Bioorg Med Chem Lett, 2023)
# Key:
# [1] = test system: SARS-CoV-2; experiment: Antiviral activity against SARS-CoV-2 infected Chlorocebus sabaeus Vero E6 cells assessed as inhibition of viral replication; format: functional; conditions: Severe acute respiratory syndrome coronavirus 2, Vero C1008; read-out: ID50 (the source's name)
# [2] = target: Replicase polyprotein 1ab (Severe acute respiratory syndrome-related coronavirus, UniProt P0C6X7); experiment: Inhibition of SARS-CoV-1 papain-like protease
# [3] = target: Replicase polyprotein 1ab (Severe acute respiratory syndrome coronavirus 2, UniProt P0DTD1); experiment: Inhibition of SARS-CoV-2 papain-like protease
# [4] = test system: SARS-CoV; experiment: Antiviral activity against SARS-CoV-1 infected Chlorocebus sabaeus Vero E6 cells assessed as inhibition of viral replication; format: functional; conditions: Severe acute respiratory syndrome-related coronavirus, Vero C1008; read-out: ID50 (the source's name)
smiles,measurement,setting,value
COc1ccc(CNC(=O)C2CCN([C@H](C)c3cccc4ccccc34)CC2)cc1,IC50,[1],17 µM
same,IC50,[2],0.56 µM
same,IC50,[3],0.92 µM
same,IC50,[4],10.2 µM
COc1cccc(CNC(=O)C2CCN([C@H](C)c3ccc4ccccc4c3)CC2)c1,IC50,[1],27 µM
same,IC50,[2],13.2 µM
CCCN(CCC)C(=O)c1ccc(C)c(C(=O)N[C@H](C)c2cccc3ccccc23)c1,IC50,[1],> 100 µM
same,IC50,[3],> 100 µM
C[C@@H](NS(=O)(=O)c1ccc([N+](=O)[O-])cc1)c1cccc2ccccc12,IC50,[1],56 µM
same,IC50,[3],6.3 µM
C[C@@H](NC(=O)[C@@H](Cc1c[nH]c2ccccc12)NC(=O)OC(C)(C)C)c1cccc2ccccc12,IC50,[1],36 µM
same,IC50,[3],> 100 µM
C[C@@H](NC(=O)[C@H](N)Cc1ccccc1)c1cccc2ccccc12,IC50,[1],76 µM
same,IC50,[3],> 100 µM
COc1ccc(C(=O)N[C@H](C)c2cccc3ccccc23)cc1N,IC50,[1],> 100 µM
same,IC50,[3],35.2 µM
C[C@@H](NC(=O)[C@H](NC(=O)OC(C)(C)C)c1ccccc1)c1cccc2ccccc12,IC50,[1],> 100 µM
same,IC50,[3],13.3 µM
C[C@@H](NS(=O)(=O)c1cccc([N+](=O)[O-])c1)c1cccc2ccccc12,IC50,[1],38 µM
same,IC50,[3],15.5 µM
C[C@@H](NC(=O)[C@@H](NC(=O)OC(C)(C)C)c1ccccc1)c1cccc2ccccc12,IC50,[1],> 100 µM
same,IC50,[3],13.2 µM
C[C@@H](NC(=O)[C@@H](Cc1ccccc1)NC(=O)OC(C)(C)C)c1cccc2ccccc12,IC50,[1],38 µM
same,IC50,[3],> 100 µM
C[C@@H](NS(=O)(=O)c1ccc(N)cc1)c1cccc2ccccc12,IC50,[1],> 100 µM
same,IC50,[3],> 100 µM
Cc1ccc(C(=O)NC(C)C)cc1C(=O)N[C@H](C)c1cccc2ccccc12,IC50,[1],> 100 µM
same,IC50,[3],> 100 µM
CCCN(CCC)C(=O)c1cccc(C(=O)N[C@H](C)c2cccc3ccccc23)c1,IC50,[1],15 µM
same,IC50,[3],15.9 µM
C[C@@H](NS(=O)(=O)c1cccc(N)c1)c1cccc2ccccc12,IC50,[1],64 µM
C[C@@H](NC(=O)[C@H](N)Cc1c[nH]c2ccccc12)c1cccc2ccccc12,IC50,[1],31 µM
same,IC50,[3],> 100 µM
COc1ccc([C@@H](C)NC(=O)c2cc(N)ccc2C)c2ccccc12,IC50,[1],36 µM
same,IC50,[3],> 100 µM
Cc1ccc(N)cc1C(=O)N[C@H](C)c1cccc2ccccc12,IC50,[1],38 µM
CNCc1ccc(C)c(C(=O)N[C@H](C)c2cccc3ccccc23)c1,IC50,[1],20 µM
Cc1ccc(CN)cc1C(=O)N[C@H](C)c1cccc2ccccc12,IC50,[1],24 µM
